US20120270929A1, “MODULATION OF TTC39 EXPRESSION TO INCREASE HDL” (ISIS Pharmaceuticals, Inc., priority 2009, published 2012)
Oligonucleotides are written 5' to 3', each unit as a sugar letter and its base; * is a phosphorothioate linkage, no mark a phosphodiester; rarer units and linkages stand in square brackets, end groups in braces. Plain capitals give the bases only. e = 2'-O-(2-methoxyethyl) (MOE); [5mC] = 5-methylcytosine; d = 2'-deoxy (DNA)

Key:
murine TTC39B mRNA [1] = assay: Antisense inhibition of murine TTC39B in mouse primary hepatocytes, single dose; type: cell-based; conditions: 100 nM, cytofectin, ~24 h, vs untreated control; gapmers targeted to SEQ ID NO: 6
How it was run: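 Mouse primary hepatocytes transfected by cytofectin with 100 nM 5-10-5 MOE gapmer (20-mer, phosphorothioate, 5-methylcytosine) for ~24 h. TTC39B mRNA quantified by real-time qPCR, normalized to RIBOGREEN total RNA. Values given as percent inhibition versus untreated cells.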

murine TTC39B mRNA [2] = assay: Dose-dependent antisense inhibition of murine TTC39B in mouse primary hepatocytes (Example 2); type: cell-based; conditions: cytofectin, ~16 h
How it was run: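 Mouse primary hepatocytes (10,000/well) transfected via cytofectin with 25, 50, 100 or 200 nM antisense oligonucleotide for about 16 h. TTC39B mRNA quantified by real-time PCR, normalized to RIBOGREEN total RNA, as % inhibition versus untreated cells.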

[3] = Plasma cholesterol and triglycerides in C57BL/6 mice (Olympus AU400e); type: in vivo, mouse; conditions: for total cholesterol % increase over baseline: 6 weeks, baseline average of 72 mg/dL
Procedure: (§1) Four groups of five mice each were injected twice a week with 25 mg/kg (totaling 50 mg/kg/week) of ISIS 447114, ISIS 447118, ISIS 447143, or ISIS 447144 for 6 weeks. A control group of five mice was injected with phosphate buffered saline (PBS) twice a week for 6 weeks. Plasma samples were obtained before the start of treatment, at week 3 and at week 6. At the end of the treatment period, mice were fasted for 4 hours before being euthanized. Plasma and tissue samples were obtained for further analysis.
To investigate the effect of inhibition of TTC39B on triglycerides and cholesterol levels in the plasma, samples were collected on weeks 0, 3, and 6, and total plasma cholesterol, LDL cholesterol, HDL cholesterol, and triglycerides were analyzed on an Olympus AU400e Analyzer.

[4] = Plasma NEFA and 3-HB in C57BL/6 mice; type: in vivo, mouse; set-up: 3-HB levels: unit not given here; conditions: for 3-HB % change over the baseline / NEFA % change over the baseline: 6 weeks
Procedure: as §1
Effect of antisense inhibition of TTC39B on free fatty acid levels Plasma levels of non-esterified fatty acids (NEFA) and 3-hydroxybutyric acid (3-HB), which are the end-products of fatty acid oxidation, were measured using an automated clinical chemistry analyzer (Olympus Clinical Analyzer).

[5] = Liver function: plasma transaminases (ALT, AST) in C57BL/6 mice; type: in vivo, mouse
Procedure: as §1
To evaluate the impact of ISIS oligonucleotides on the hepatic function of the mice described above, plasma concentrations of transaminases were measured using an automated clinical chemistry analyzer (Olympus Clinical Analyzer). Measurements of alanine transaminase (ALT) and aspartate transaminase (AST) are expressed in IU/L. The results are presented in Tables 19 and 20 and indicate that the oligonucleotides were well tolerated.

[6] = system: Apolipoprotein A-IV (ApoA4) mRNA; assay: PCR microarray analysis of liver, LDLr-/- mice: ApoA4; type: in vivo, mouse; conditions: 6 weeks
Procedure: Four groups of five male mice each were injected with a total of 1.5, 5, 15, or 50 mg/kg/week of ISIS 447118 for 6 weeks. A group of five mice was injected with a total of 50 mg/kg/week of control oligonucleotide ISIS 141923 ([…], designated herein as SEQ ID NO: 112, which has no known murine target) for 6 weeks. A control group of five mice was injected with phosphate buffered saline (PBS) twice a week for 6 weeks. Plasma samples were obtained before the start of treatment, at week 3 and at week 6. At the end of the treatment period, the mice were euthanized. Plasma and tissue samples were obtained for further analysis.
Liver samples from the mice groups were analyzed using a commercial kit for PCR microarray analysis (SA Biosciences Corp., MD), according to the manufacturer's instructions. Genes involved in lipoprotein and cholesterol metabolism were compared with the PBS control.

[7] = Week 0 (before treatment), 50 mg/kg/week

Sequence | % inhibition of murine TTC39B mRNA (murine TTC39B mRNA [1]) [%] | percent inhibition of TTC39B mRNA (murine TTC39B mRNA [2]; 25 nM) [%] | percent inhibition of TTC39B mRNA (murine TTC39B mRNA [2]; 50 nM) [%] | percent inhibition of TTC39B mRNA (murine TTC39B mRNA [2]; 100 nM) [%] | percent inhibition of TTC39B mRNA (murine TTC39B mRNA [2]; 200 nM) [%] | total cholesterol % increase over baseline ([3]; 50 mg/kg/week) | HDL cholesterol levels [3, 7] [mg/dL] | LDL cholesterol levels [3, 7] [mg/dL] | total cholesterol levels [3, 7] [mg/dL] | triglyceride levels [3, 7] [mg/dL] | HDL cholesterol levels ([3]; Week 3, 50 mg/kg/week) [mg/dL] | HDL cholesterol levels (% change over baseline) ([3]; Week 3, 50 mg/kg/week) | LDL cholesterol levels ([3]; Week 3, 50 mg/kg/week) [mg/dL] | total cholesterol levels ([3]; Week 3, 50 mg/kg/week) [mg/dL] | triglyceride levels ([3]; Week 3, 50 mg/kg/week) [mg/dL] | HDL cholesterol levels ([3]; Week 6, 50 mg/kg/week) [mg/dL] | HDL cholesterol levels (% change over baseline) ([3]; Week 6, 50 mg/kg/week) | LDL cholesterol levels ([3]; Week 6, 50 mg/kg/week) [mg/dL] | total cholesterol levels ([3]; Week 6, 50 mg/kg/week) [mg/dL] | triglyceride levels ([3]; Week 6, 50 mg/kg/week) [mg/dL] | also measured
GCCACCAGTGCCTGCTGAGC (antisense eG*e[5mC]*e[5mC]*eA*e[5mC]*d[5mC]*dA*dG*dT*dG*d[5mC]*d[5mC]*dT*dG*d[5mC]*eT*eG*eA*eG*e[5mC]) [ISIS 447143] | 74 | 36 | 71 | 79 | 91 | +46% | 44 | 13 | 70 | 95 | 56 | +28% | 14 | 81 | 92 | 91 | +104% | 17 | 104 | 95 | 3-HB % change over the baseline ([4]; 50 mg/kg/week): +41%; NEFA % change over the baseline ([4]; 50 mg/kg/week): +109%; 3-HB levels [4, 7]: 108; NEFA levels [4, 7]: 0.70 mEq/L; 3-HB levels ([4]; Week 3, 50 mg/kg/week): 89; NEFA levels ([4]; Week 3, 50 mg/kg/week): 0.72 mEq/L; 3-HB levels ([4]; Week 6, 50 mg/kg/week): 222; NEFA levels ([4]; Week 6, 50 mg/kg/week): 1.30 mEq/L; ALT levels [5, 7]: 32 IU/L; AST levels [5, 7]: 50 IU/L; ALT levels ([5]; Week 3, 50 mg/kg/week): 31 IU/L; AST levels ([5]; Week 3, 50 mg/kg/week): 31 IU/L; ALT levels ([5]; Week 6, 50 mg/kg/week): 45 IU/L; AST levels ([5]; Week 6, 50 mg/kg/week): 73 IU/L
GCAGCTCGATTCGGGCATGA (antisense eG*e[5mC]*eA*eG*e[5mC]*dT*d[5mC]*dG*dA*dT*dT*d[5mC]*dG*dG*dG*e[5mC]*eA*eT*eG*eA) [ISIS 447118] | 76 | 49 | 65 | 74 | 82 | +37% | 45 | 14 | 71 | 82 | 50 | +15% | 13 | 77 | 69 | 100 | +89% | 15 | 97 | 88 | 3-HB % change over the baseline ([4]; 50 mg/kg/week): +157%; NEFA % change over the baseline ([4]; 50 mg/kg/week): +90%; 3-HB levels [4, 7]: 158; NEFA levels [4, 7]: 0.67 mEq/L; 3-HB levels ([4]; Week 3, 50 mg/kg/week): 111; NEFA levels ([4]; Week 3, 50 mg/kg/week): 0.51 mEq/L; 3-HB levels ([4]; Week 6, 50 mg/kg/week): 406; NEFA levels ([4]; Week 6, 50 mg/kg/week): 1.18 mEq/L; ALT levels [5, 7]: 29 IU/L; AST levels [5, 7]: 88 IU/L; ALT levels ([5]; Week 3, 50 mg/kg/week): 39 IU/L; AST levels ([5]; Week 3, 50 mg/kg/week): 39 IU/L; ALT levels ([5]; Week 6, 50 mg/kg/week): 50 IU/L; AST levels ([5]; Week 6, 50 mg/kg/week): 127 IU/L; ApoA4 fold increase/decrease relative to PBS group ([6]; 1.5 mg/kg): 1.26 fold; ApoA4 fold increase/decrease relative to PBS group ([6]; 5 mg/kg): 1.38 fold; ApoA4 fold increase/decrease relative to PBS group ([6]; 15 mg/kg): 1.76 fold; ApoA4 fold increase/decrease relative to PBS group ([6]; 50 mg/kg): 2.7 fold
CGGATGATTCTTGCTGGTAA (antisense e[5mC]*eG*eG*eA*eT*dG*dA*dT*dT*d[5mC]*dT*dT*dG*d[5mC]*dT*eG*eG*eT*eA*eA) [ISIS 447114] | 73 | 42 | 70 | 85 | 92 | +61% | 42 | 11 | 66 | 107 | 47 | +14% | 12 | 70 | 66 | 96 | +130% | 19 | 114 | 113 | 3-HB % change over the baseline ([4]; 50 mg/kg/week): +184%; NEFA % change over the baseline ([4]; 50 mg/kg/week): +144%; 3-HB levels [4, 7]: 145; NEFA levels [4, 7]: 0.67 mEq/L; 3-HB levels ([4]; Week 3, 50 mg/kg/week): 109; NEFA levels ([4]; Week 3, 50 mg/kg/week): 0.49 mEq/L; 3-HB levels ([4]; Week 6, 50 mg/kg/week): 449; NEFA levels ([4]; Week 6, 50 mg/kg/week): 1.52 mEq/L; ALT levels [5, 7]: 46 IU/L; AST levels [5, 7]: 83 IU/L; ALT levels ([5]; Week 3, 50 mg/kg/week): 21 IU/L; AST levels ([5]; Week 3, 50 mg/kg/week): 29 IU/L; ALT levels ([5]; Week 6, 50 mg/kg/week): 40 IU/L; AST levels ([5]; Week 6, 50 mg/kg/week): 93 IU/L
TATTTCTATAGCTCATGACA (antisense eT*eA*eT*eT*eT*d[5mC]*dT*dA*dT*dA*dG*d[5mC]*dT*d[5mC]*dA*eT*eG*eA*e[5mC]*eA) [ISIS 447144] | 69 | 37 | 69 | 74 | 84 | +37% | 46 | 14 | 75 | 78 | 53 | +14% | 14 | 81 | 70 | 90 | +88% | 18 | 107 | 91 | 3-HB % change over the baseline ([4]; 50 mg/kg/week): +152%; NEFA % change over the baseline ([4]; 50 mg/kg/week): +101%; 3-HB levels [4, 7]: 124; NEFA levels [4, 7]: 0.57 mEq/L; 3-HB levels ([4]; Week 3, 50 mg/kg/week): 122; NEFA levels ([4]; Week 3, 50 mg/kg/week): 0.63 mEq/L; 3-HB levels ([4]; Week 6, 50 mg/kg/week): 398; NEFA levels ([4]; Week 6, 50 mg/kg/week): 1.25 mEq/L; ALT levels [5, 7]: 28 IU/L; AST levels [5, 7]: 67 IU/L; ALT levels ([5]; Week 3, 50 mg/kg/week): 21 IU/L; AST levels ([5]; Week 3, 50 mg/kg/week): 31 IU/L; ALT levels ([5]; Week 6, 50 mg/kg/week): 69 IU/L; AST levels ([5]; Week 6, 50 mg/kg/week): 113 IU/L
